Experimental data taken from patent US10844354B2, “Cardiomyocyte maturation” (Ncardia B.V., priority 2014, dated 2020).

Tested on: stem-cell derived cardiomyocytes
Assay: Perforated patch clamp action potential measurement of spontaneously beating stem-cell derived cardiomyocytes
Type: cell-based, human
Conditions: induced pluripotent stem cell derived cardiomyocytes
Procedure: Differentiated (fetal-like/immature) human stem-cell derived cardiomyocytes were subsequently cultured and allowed to mature as described below, although any other method in the art may suitable be used. Tissue culture plastic was coated using Matrigel (Corning) at a concentration of 1/100 in DMEM, for 45 min at room temperature. A single cell suspension coming from dissociated embryoid bodies, dissociated monolayers or (commercially obtained) frozen (fetal-like (immature)) stem-cell derived cardiomyocytes were seeded at an appropriate density on matrigel coated tissue culture plastic (e.g. in 20-40 k cells per well of a 96-well plate, e.g. 20-200 k per well of a 12 well plate). On day 1 following plating, the foetal-like (immature) cardiomyocytes were exposed to a culture medium composition of the invention, which consists of a serum-free culture medium composition comprising 50 ng/ml of T3 (Sigma T6397), 2 mM of carnitine, 5 mM of creatine, 5 mM of taurine, 2.2 microgram/ml of cholesterol, 0.1 microgram/ml of linoleic acid, 0.1 microgram/ml of linolenic acid, 0.1 microgram/ml of palmitic acid (lipids, for example, from Gibco 11905), 10 mg/ml of insulin, 5.5 mg/ml of transferrin, 0.0067 mg/ml of selenium (insulin, transferrin and selenium from e.g. Gibco 51500), 0.01% of trace element mix B (as described herein; Cellgro 99-175-CL), 0.1% of trace element mix C (as described herein; Cellgro 99-176-CL), 0.5 w/w % of antibiotics (penicillin-streptomycin mixture commercially available Gibco (Gibco 12070; 5000 U/ML), 0.05 mg/ml ascorbic acid, 2 mM of Glutamax supplement (i.e. L-alanyl-L-glutamine dipeptide in 0.85% NaCl, commercially available at Gibco, e.g. Gibco 35050), 0.125 w/w % polyvinylalcohol (PVA), 450 nM of alpha monothiolglycerol (MTG) (commercially available), 025 w/w %/o BSA (Bovostar BSAS1.0) in 46.5% (w/w) IMDM (Gibco 21056) and 46.5% (w/w) HAM F-12 with glutamax (Gibco 31765). All concentrations are expressed as final concentration in the culture medium composition. This step was repeated every 2-3 days. In those experiments that also use thyroid hormone or a thyroid hormone analog, treatment with the culture medium composition as taught herein comprising e.g. T3 started either at day 1, day 3 or day 7 post plating.
At day 10 dbcAMP was added to a final concentration of 0.5 mM and the cell were further cultured. Action potential measurements of control and dbcAMP treated cells were performed using the patch clamp technique at 24, 48 and 72-hours post addition of the cAMP-raising compound.
Electrophysiology of the cells treated with the cAMP-raising compound or not was determined by standard techniques in the art, in particular with the method as described by for example, Bellin et al. (EMBO J. 2013; 32(24): 3161-3175), with the modification that in the examples provide herein spontaneous activity of the stem-cell derived cardiomyocytes was determined and no electric stimulation was required, although measurement may, as the skilled person knows, also be done under conditions of stimulation. Action potentials from small groups of cells (5-10 cells) were measured with the perforated patch clamp technique using an Axopatch 200b amplifier (Molecular Devices) and low resistance patch pipettes (1.5-2.5 MΩ). Data acquisition and analyses of action potentials were performed with pClamp 10 (axon instruments) and custom made software. Action Potentials were corrected for the calculated liquid junction potential (−15 mV).
Action potential from spontaneous beating cells were measured at 37±0.20 C using a modified Tyrode's solution containing (in mM): 140 NaCl, 5.4 KCl, 1.8 CaCl2, 1.0 MgCl2, 5.5 glucose, 5.0 HEPES; pH7.2 (NaOH).
The pipette solution contained (in mM): 125 K-gluconate, 20 KCl, 5 NaCl, 0.22 amphotericin-B, 10 HEPES; pH 7.2 (KOH). […]

CCCC(=O)Nc1ncnc2c1ncn2[C@@H]1O[C@@H]2COP(=O)(O)O[C@H]2[C@H]1OC(=O)CCC [dbcAMP, N6,2′-O-dibutyryladenosine 3′,5′-cyclic monophosphate]
upstroke velocity (0.5 mM dbcAMP for 24, 48 and 72 hrs vs non-treated, FIG. 1): improved the upstroke velocity dramatically
resting membrane potential (liquid junction potential corrected) (0.5 mM dbcAMP for 24, 48 and 72 hrs vs non-treated, FIG. 2): improved the resting membrane potential dramatically
representative action potentials (dbcAMP for 24, 48 and 72 hrs vs non-treated, FIG. 3): action potentials that are more adult cardiomyocyte like
amplitude (dbcAMP for 24, 48 and 72 hrs vs non-treated, FIG. 4): improves the amplitude
repolarization parameters (dbcAMP for 24, 48 and 72 hrs vs non-treated, FIG. 5): improves the repolarization parameters
representative action potentials (dbcAMP for 72 hrs vs non-treated, FIG. 6): action potentials that are more adult cardiomyocyte like
